Results on 3 compounds are retold here after PMC6814738, “Bacterial MgrB peptide activates chemoreceptor Fpr3 in mouse accessory olfactory system and drives avoidance behaviour” (Nature Communications, 2019).

Peptide text beside a SMILES is read from it. * marks the point of attachment. For = O=C*

The target of test [1] is T1, mouse Fpr3 (Fpr-rs1) (Mus musculus, UniProt O08790).
T1 construct: expressed in transfected cells; host or cells: HEK293T (DSMZ # ACC-635), transient transfection with jetPEI
T1 sequence (O08790 1-351): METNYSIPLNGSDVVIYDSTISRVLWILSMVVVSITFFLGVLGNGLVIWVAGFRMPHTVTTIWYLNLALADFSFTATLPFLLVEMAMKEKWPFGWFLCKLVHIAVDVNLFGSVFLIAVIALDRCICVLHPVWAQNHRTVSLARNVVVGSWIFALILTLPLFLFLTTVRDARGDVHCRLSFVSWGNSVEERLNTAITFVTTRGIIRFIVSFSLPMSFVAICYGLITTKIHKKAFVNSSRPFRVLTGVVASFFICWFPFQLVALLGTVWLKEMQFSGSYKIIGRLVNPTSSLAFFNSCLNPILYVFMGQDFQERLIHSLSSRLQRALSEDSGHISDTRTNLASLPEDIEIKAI
The experiment in a line: Concentration-response Ca2+ imaging of Fpr3-transfected HEK293T cells (Fig. 2f, h, j). As to conditions: for EC50: Ca2+ responses of Fpr3-transfected HEK293T, Fluo-4/AM, FLIPR, buffer C1 pH 7.2, Fig. 2f, h, j. The test is classed as cell-based. Here is the method: (§1) An Fpr3 gene subcloned from genomic DNA of C57BL/6J mice into pcDNA3.1 (Invitrogen) was used in heterologous experiments[21],[80]. HEK293T (DSMZ # ACC-635) cells were seeded at 20–30% confluence on poly-D-lysine-coated (10 µg/ml in PBS) black 96-well µCLEAR-Plates (Greiner Bio-One). Cells were transfected 24 h later using jetPEI™ (Polyplus-transfection SA) according to the manufacturer’s protocol for 96-well transfections. For Ca^2+ imaging experiments, 0.125 µg of DNA plasmid encoding Fpr3 were cotransfected with equal amounts of a plasmid encoding Gα16, a promiscuous G protein α-subunit. Ca^2+ signals to agonist stimulation were recorded 48 h post transfection using the Ca^2+ indicator dye Fluo-4/AM (Molecular Probes) and a fluorescence imaging plate reader (FLIPR) system (Molecular Devices).
We used custom-made peptides with a length of 6–21 amino acids to screen for agonists. Sequences of fMet peptides were designed according to motifs present at the N-termini of 15,125 specific bacterial proteins as annotated in UniProt. Peptides were chemically synthesised, purified, and verified by mass spectroscopy (MALDI-TOF) by commercial suppliers. […] Source, sequence and purity of each peptide are listed in Supplementary Data 1. Lyophilised peptides were routinely dissolved in the Ca^2+ imaging assay buffer C1 (130 mM NaCl, 10 mM HEPES, 5 mM KCl, 2 mM CaCl2, 5 mM glucose, pH 7.2) as 0.2–1 mM stock solutions and kept in small aliquots at −20 °C until use.

The target in test [2] is T1, mouse Fpr3 (Fpr-rs1). Description: Heterologous expression / high-throughput Ca2+ imaging agonist screen and sequence selectivity of Fpr3 (Fig. 1a, 2c-e, 2g, 2i). In kind it is cell-based. As to conditions: 10 µM; Fpr3-transfected HEK293T; Fig. 2g. Here is the method: as §1, with “Devices). Cotransfection of a plasmid encoding Gα16 with an empty vector used to subclone Fpr3 gave no agonist-evoked Ca^2+ responses.” for “Devices).”
We used custom-made peptides with a length of 6–21 amino acids to screen for agonists. Sequences of fMet peptides were designed according to motifs present at the N-termini of 15,125 specific bacterial proteins as annotated in UniProt. Peptides were chemically synthesised, purified, and verified by mass spectroscopy (MALDI-TOF) by commercial suppliers. Purity of all peptides was >95%. Source, sequence and purity of each peptide are listed in Supplementary Data 1. Lyophilised peptides were routinely dissolved in the Ca^2+ imaging assay buffer C1 (130 mM NaCl, 10 mM HEPES, 5 mM KCl, 2 mM CaCl2, 5 mM glucose, pH 7.2) as 0.2–1 mM stock solutions and kept in small aliquots at −20 °C until use. […] The sequences of these peptides exist in proteins from the following bacterial strains[21]: Psychromonas ingrahamii that belongs to a marine ice water microbial community, Desulfotomaculum reducens that is found in deep freshwater lakes, and Pseudomonas grimontii, a plant pathogen. As mice are unlikely to encounter these strains in their natural habitat, these findings are probably not of biological relevance.

For orientation: EC50 means the concentration at which the effect is half-maximal. Higher therefore signals a less potent agent. `CC[C@H](C)[C@H](NC(=O)[C@H](CO)NC(=O)[C@H](Cc1c[nH]c2ccccc12)NC(=O)[C@H](CCCCN)NC(=O)[C@H](Cc1ccccc1)NC(=O)[C@H](CCCCN)NC(=O)[C@H](CCCCN)NC(=O)[C@H](CCSC)NC=O)C(=O)O` (For-MKKFKWSI-OH) had an EC50 on mouse Fpr3 (Fpr-rs1) [1] of 800 nM.
On the same count and under the same terms, as for `CC[C@H](C)[C@H](NC(=O)CNC(=O)[C@H](CC(C)C)NC(=O)[C@@H](NC(=O)[C@@H](NC(=O)[C@H](Cc1c[nH]c2ccccc12)NC(=O)[C@H](CCCNC(=N)N)NC(=O)[C@H](Cc1ccccc1)NC(=O)[C@H](CCCCN)NC(=O)[C@H](CCCCN)NC(=O)[C@H](CCSC)NC=O)C(C)C)C(C)C)C(=O)N[C@H](C(=O)O)C(C)C` (For-MKKFRWVVLGIV-OH), the figure is 210 nM.
Take “f-MKKFRWVVLGIVVVVCLLLWAQ [21-mer peptide]”: on mouse Fpr3 (Fpr-rs1) [2], the “Fpr3 activation by MgrB 9-, 12- and 21-residue variants, in words” value is “failed to activate Fpr3”. In addition, at mouse Fpr3 (Fpr-rs1) [1] (Fpr3-transfected HEK293T, Fig. 2h), the “signals in concentration-response, in words” value is “No signals were obtained”.
